Source: publication PMC10126150 (2023)

What was measured:
Assay in all cases: Cy3/quencher fluorescence plate reader
Conditions in all cases: 120 mM Na+, 5 mM K+, 1 mM Mg2+, 1 mM Ca2+; 20 mM Tris-HCl, 25 °C; affinity similar to glucose
[1] = system: glu-1 ADS construct (DNA, aptamer, boronic acid-modified U (Z, T in the source) at 5,7,8,12,15,19,24,26 of strand 1 (MS of Bio-NNGmin: seven of eight coupled)) CCCGTGTTAGATAGTAAGTGCAATCTCGGCTTTCTGTCTCTTATACACATCTGACGCTGCCGACGA/TCGTCGGCAGCGTCAGATGTGTATAAGAGACAGTTTTTTTTTTTTTTTTTTTTTTTTTTAGGGCAGGCTC
[2] = system: glu-2 ADS construct (DNA, aptamer, boronic acid-modified U (Z, T in the source) at 5,7,8,12,15,19,24,26 of strand 1 (MS of Bio-NNGmin: seven of eight coupled)) CCCGTGTTAGATAGTAAGTGCAATCTCGGCTTTCTGTCTCTTATACACATCTGACGCTGCCGACGA/TCGTCGGCAGCGTCAGATGTGTATAAGAGACAGTTTTTTTTTTTTTTTTTTTTTTTTTCAGGACAGGCTC
[3] = system: glu-3 ADS construct (DNA, aptamer, boronic acid-modified U (Z, T in the source) at 5,7,8,12,15,19,24,26 of strand 1 (MS of Bio-NNGmin: seven of eight coupled)) CCCGTGTTAGATAGTAAGTGCAATCTCGGCTTTCTGTCTCTTATACACATCTGACGCTGCCGACGA/TCGTCGGCAGCGTCAGATGTGTATAAGAGACAGTTTTTTTTTTTTTTTTTTTTTTTTTTACCAGGAGCTC
[4] = system: glu-4 ADS construct (DNA, aptamer, boronic acid-modified U (Z, T in the source) at 5,7,8,12,15,19,24,26 of strand 1 (MS of Bio-NNGmin: seven of eight coupled)) CCCGTGTTAGATAGTAAGTGCAATCTCGGCTTTCTGTCTCTTATACACATCTGACGCTGCCGACGA/TCGTCGGCAGCGTCAGATGTGTATAAGAGACAGTTTTTTTTTTTTTTTTTTTTTTTTTACCAGGAGCTTC

binding [1]: yes
binding [2]: yes
binding [3]: yes
binding [4]: yes
Structure (SMILES): OCC1(O)OC[C@@H](O)[C@@H](O)[C@@H]1O (stereo partly shown)
